# Measured values: US20110300168A1, “COMPOSITIONS AND METHODS FOR INDUCING AN IMMUNE RESPONSE AGAINST INFLUENZA ANTIGENS” (THE JOHNS HOPKINS UNIVERSITY, priority 2010, published 2011)
# Experiments:
# Assay type in all cases: cell-based, human
# CD8+ T cells [1] = conditions: control donors aged 21-42, wk 0 directly ex vivo, peptide pulsed T2 cells 1:1; positive if SFC greater than 5 per 100000 CD8+ T cells, p<0.05
# CD8+ T cells [2] = conditions: for control donors in whom the epitope elicited a response: 12 control donors, aAPC assay, ICS; for geriatric donors with CD8+ T cells responding to the epitope: nine geriatric donors aged 65 and above, IFNγ ICS after 3 weeks of aAPC stimulation
# CD8+ T cells [3] = tested on: CD8+ T cells
Sequence,number of donors who responded by IFNγ ELISpot (CD8+ T cells [1]),control donors in whom the epitope elicited a response (CD8+ T cells [2]),geriatric donors with CD8+ T cells responding to the epitope (CD8+ T cells [2]),CD8+ T cells specific for the epitope by A2-Ig dimer staining (CD8+ T cells [3]) [%],"CD8+ T cells specific by IFNγ expression (ICS) (CD8+ T cells [2]; Donor C1, after 3 weekly aAPC stimulations, restimulated with peptide pulsed T2 cells 1:1) [%]"
"CVNGSCFTV (listed as Influenza virus) [NA231-239, subdominant influenza peptide, pool 1]",no donor responded,,,,
"IMDKNIILKA (listed as Influenza virus) [NS1123-132, subdominant influenza peptide, pool 2]",One,majority of the donors,"Donors E2, E3, E4, and E8 responded",,
"NMLSTVLGV (listed as Influenza virus) [PB1413-421, subdominant influenza peptide, pool 1]",Four out of the six,majority of the donors,none responded,75,37
"SLCPIRGWAI (listed as Influenza virus) [NA75-84, subdominant influenza peptide, pool 2]",2,,,,
"SLENFRAYV (listed as Influenza virus) [PA225-233, subdominant influenza peptide, pool 1]",One,,,,
